According to patent US10851065B2 (Eisai R&D Management Co., Ltd., priority 2015, dated 2020):

Tests used:
[1] = test system: MCF7-Y537S cells (MCF7 ER-alpha Y537S mutant); test: In vitro proliferation (viability) assay, CellTiter-Glo, MCF7-Y537S cells; format: cell-based; conditions: Homo sapiens; MCF7-Y537S cells, 6 days, CTG vs day 0; mean ± SD-type spread (n); read-out: GI50 MUT (Y537S)
Procedure: (§1) MCF7 BUS cells (Coser, et al., (2003) PNAS 100(24): 13994-13999) were maintained in Dulbecco's Modified Eagle Medium supplemented with 10% FBS, 4 mM L-glutamine and 1× non-essential amino acids. Lenti-X 293T cells (Clontech, Cat #632180) were routinely cultured in Dulbecco's Modified Eagle Medium supplemented with 10% FBS.
(§2) The QuikChange II XL Site-Directed Mutagenesis Kit (Agilent Technologies, Cat #200523) was used to generate Y537S, Y537C, Y537N and D538G mutations within the ERα exon 8. Wild-type ESR1 cDNA (GeneCopoeia Inc., Cat #GC-A0322, accession no. NM 000125) was used as a template with the following mutagenesis primers (where the underlined nucleotides represent site mutations); Y537S: F-AAGAACGTGGTGCCCCTCTCTGACCTGCTGCTGGAGATG (SEQ ID NO: 1), R-CATCTCCAGCAGCAGGTCAGAGAGGGGCACCACGTTCTT (SEQ ID NO: 2); Y537N: F-AAGAACGTGGTGCCCCTCAATGACCTGCTGCTGGAGATG (SEQ ID NO: 3), R-CATCTCCAGCAGCAGGTCATTGAGGGGCACCACGTTCTT (SEQ ID NO: 4); Y537C: F-AAGAACGTGGTGCCCCTCTGTGACCTGCTGCTGGAGATG (SEQ ID NO: 5), R-CATCTCCAGCAGCAGGTCACAGAGGGGCACCACGTTCTT (SEQ ID NO: 6); D538G: F-AACGTGGTGCCCCTCTATGGCCTGCTGCTGGAGATGCTG (SEQ ID NO: 7), R-CAGCATCTCCAGCAGCAGGCCATAGAGGGGCACCACGTT (SEQ ID NO: 8). WT and mutant ESR1 cDNAs were cloned into the designation lentiviral vector pLenti6.3/V5-Dest (Invitrogen, Cat #V533-06). To make lentivirus, DNAs (WT and mutant ESR1) were co-transfected with packaging plasmids into Lenti-X 293T cells using TransIT (Mirus, Cat #MIR 2700). 48 h post-transfection, virus containing media was filtered and added to MCF7 cells in the presence of 8 µg/ml polybrene overnight. Two days following infection, cells were placed under selection with 10 μg/ml blasticidin for 2 weeks for stable expression.
(§3) MCF7-WT and -Y537S cells were seeded at 1500 cells/well in black-walled 96-well plates (assay plates, Costar, Cat #3904). In parallel, cells were also seeded in a separate 96-well plate (8 wells/cell line, control plate) for which a CTG (CellTiter-Glo® Luminescent Viability Assay, Promega, Cat #G7572) was measured the following day (day 0 reading). The day 0 reading was used for the GI50 calculation at the termination of the experiment. The day following seeding, compounds were added to assay plates. Briefly, a 1:4 serial dilution was prepared in DMSO at 200× final concentration for a total of 10 concentrations (9 dilutions containing compound and one is DMSO only). Serially diluted compounds were pipetted into medium to prepare a compound-medium mix at 10× final concentration. 10 μl of compound-medium mix was added to MCF7-WT and -Y537S cells at 3 wells/concentration (triplicate for each concentration). On day 3, media/compound was removed and replaced with fresh media/compound as described above. On day 6, CTG was measured and compared to day 0 readings from control plate to assess GI50.

[2] = test system: MCF7-WT cells (MCF7 ER-alpha wildtype); test: In vitro proliferation (viability) assay, CellTiter-Glo, MCF7-WT cells; format: cell-based; conditions: Homo sapiens; MCF7-WT cells, 6 days, CTG vs day 0; mean ± SD-type spread (n); read-out: GI50 WT
Procedure: as §1, §2, §3

| Compound | GI50 [1] [nM] | GI50 [2] [nM] |
| --- | --- | --- |
| CN(C)C(=O)/C=C/CNCCOc1ccc(/C(=C(\c2ccc(F)cc2Cl)C2CCC2)c2ccc3[nH]nc(F)c3c2)cc1 [Compound 46, (E)-4-((2-(4-((E)-2-(2-chloro-4-fluorophenyl)-2-cyclobutyl-1-(3-fluoro-1H-indazol-5-yl)vinyl)phenoxy)ethyl)amino)-N,N-dimethylbut-2-enamide] | 12.4 | 0.95 |
| CC/C(=C(/c1ccc(OCCNC/C=C/C(=O)N(C)C)c(F)c1)c1ccc2[nH]nc(F)c2c1)c1ccccc1 [Compound 49, (E)-4-((2-(2-fluoro-4-((Z)-1-(3-fluoro-1H-indazol-5-yl)-2-phenylbut-1-en-1-yl)phenoxy)ethyl)amino)-N,N-dimethylbut-2-enamide] | 288 | 5.4 |
| CC/C(=C(/c1ccc(OCCNC/C=C/C(=O)N(C)C)cc1)c1ccc2[nH]nc(F)c2c1)c1c(F)cccc1F [Compound 50, (E)-4-((2-(4-((E)-2-(2,6-difluorophenyl)-1-(3-fluoro-1H-indazol-5-yl)but-1-en-1-yl)phenoxy)ethyl)amino)-N,N-dimethylbut-2-enamide] | 67.5 | 2.46 |
| CC/C(=C(/c1ccc(OCCNC/C=C/C(=O)N(C)C)cc1)c1ccc2[nH]nc(F)c2c1)c1cccnc1 [Compound 51, (E)-4-((2-(4-((E)-1-(3-fluoro-1H-indazol-5-yl)-2-(pyridin-3-yl)but-1-en-1-yl)phenoxy)ethyl)amino)-N,N-dimethylbut-2-enamide] | 347 | 20.9 |
| CC/C(=C(/c1ccc(OCCNC/C=C/C(=O)N(C)C)cc1)c1ccc2[nH]nc(F)c2c1)c1ccncc1 [Compound 52, (E)-4-((2-(4-((E)-1-(3-fluoro-1H-indazol-5-yl)-2-(pyridin-4-yl)but-1-en-1-yl)phenoxy)ethyl)amino)-N,N-dimethylbut-2-enamide] | 85.8 | 2.9 |
| CN(CCO)C(=O)/C=C/CNCCOc1ccc(/C(=C(\c2ccccc2)C2CCC2)c2ccc3[nH]nc(F)c3c2)cc1 [Compound 53, (E)-4-((2-(4-((E)-2-cyclobutyl-1-(3-fluoro-1H-indazol-5-yl)-2-phenylvinyl)phenoxy)ethyl)amino)-N-(2-hydroxyethyl)-N-methylbut-2-enamide] | 76.5 | 3.59 |
| C/C(=C(/c1ccc(OCCNC/C=C/C(=O)N(C)C)cc1)c1ccc2[nH]ncc2c1)c1ccccc1 [Compound 54, (E)-4-((2-(4-((E)-1-(1H-indazol-5-yl)-2-phenylprop-1-en-1-yl)phenoxy)ethyl)amino)-N,N-dimethylbut-2-enamide] | 160 ± 39.6 | 7.97 ± 1.65 |
| CN(C)C(=O)/C=C/CNCCOc1ccc(/C(=C(\c2ccccc2)C2CC2)c2ccc3[nH]ncc3c2)cc1 [Compound 56, (E)-4-((2-(4-((E)-2-cyclopropyl-1-(1H-indazol-5-yl)-2-phenylvinyl)phenoxy)ethyl)amino)-N,N-dimethylbut-2-enamide] | 63.6 ± 18.4 | 3.78 ± 1.75 |
| CC/C(=C(/c1ccc(OCCNC/C=C/C(=O)N(C)C)cc1)c1ccc2[nH]ncc2c1F)c1ccc(F)cc1Cl [Compound 57, (E)-4-((2-(4-((E)-2-(2-chloro-4-fluorophenyl)-1-(4-fluoro-1H-indazol-5-yl)but-1-en-1-yl)phenoxy)ethyl)amino)-N,N-dimethylbut-2-enamide] | 36.2 | 1.9 |
| CC/C(=C(/c1ccc(OCCNC/C=C/C(=O)N(C)C)nc1)c1ccc2[nH]nc(F)c2c1)c1ccc(F)cc1Cl [Compound 58, (E)-4-((2-((5-((Z)-2-(2-chloro-4-fluorophenyl)-1-(3-fluoro-1H-indazol-5-yl)but-1-en-1-yl)pyridin-2-yl)oxy)ethyl)amino)-N,N-dimethylbut-2-enamide] | 17.9 ± 4.5 | 1.3 ± 0.4 |
| CN(C)C(=O)/C=C/CNCCOc1ccc(/C(=C(/CC(F)(F)F)c2ccc(F)cc2Cl)c2ccc3[nH]nc(F)c3c2)cn1 [Compound 59, (E)-4-((2-((5-((Z)-2-(2-chloro-4-fluorophenyl)-4,4,4-trifluoro-1-(3-fluoro-1H-indazol-5-yl)but-1-en-1-yl)pyridin-2-yl)oxy)ethyl)amino)-N,N-dimethylbut-2-enamide] | 15.2 ± 3.7 | 0.33 ± 0.18 |
| CN(C)C(=O)/C=C/CNCCOc1ccc(/C(=C(/CC(F)(F)F)c2ccncc2F)c2ccc3[nH]nc(F)c3c2)cc1 [Compound 61, (E)-N,N-dimethyl-4-((2-(4-((E)-4,4,4-trifluoro-1-(3-fluoro-1H-indazol-5-yl)-2-(3-fluoropyridin-4-yl)but-1-en-1-yl)phenoxy)ethyl)amino)but-2-enamide] | 4 ± 1.5 | 0.3 ± 0.1 |
| CN(C)C(=O)/C=C/CNCCOc1ccc(/C(=C(/CC(F)(F)F)c2ccncc2F)c2ccc3[nH]nc(F)c3c2)cn1 [Compound 62, (E)-N,N-dimethyl-4-((2-((5-((Z)-4,4,4-trifluoro-1-(3-fluoro-1H-indazol-5-yl)-2-(3-fluoropyridin-4-yl)but-1-en-1-yl)pyridin-2-yl)oxy)ethyl)amino)but-2-enamide] | 1.3 | 0.3 |
| CC/C(=C(/c1ccc(OCCNC/C=C/C(=O)N(C)C)cc1)c1ccc2[nH]ncc2n1)c1ccccc1 [Compound 63, (E)-N,N-dimethyl-4-((2-(4-((E)-2-phenyl-1-(1H-pyrazolo[4,3-b]pyridin-5-yl)but-1-en-1-yl)phenoxy)ethyl)amino)but-2-enamide] | 65.7 | 2.8 |
| CC/C(=C(\c1ccc2[nH]nc(F)c2c1)c1ccc(OCCNC/C=C/C(=O)N(C)C)cc1F)c1ccccc1 [Compound 64, (E)-4-((2-(3-fluoro-4-((Z)-1-(3-fluoro-1H-indazol-5-yl)-2-phenylbut-1-en-1-yl)phenoxy)ethyl)amino)-N,N-dimethylbut-2-enamide] | 58.3 | 3.1 |
| CC/C(=C(/c1ccc(OCCNC/C=C/C(=O)N(C)C)cc1)c1ccc2[nH]nc(F)c2c1)c1ccc(F)cc1F [Compound 65, (E)-4-((2-(4-((E)-2-(2,4-difluorophenyl)-1-(3-fluoro-1H-indazol-5-yl)but-1-en-1-yl)phenoxy)ethyl)amino)-N,N-dimethylbut-2-enamide] | 66 | 4 |
| CC/C(=C(/c1ccc(OCCNC/C=C/C(=O)N(C)C)cc1)c1cc2c(F)n[nH]c2cc1F)c1ccccc1 [Compound 66, (E)-4-((2-(4-((E)-1-(3,6-difluoro-1H-indazol-5-yl)-2-phenylbut-1-en-1-yl)phenoxy)ethyl)amino)-N,N-dimethylbut-2-enamide] | 827 | 32.1 |
| CC/C(=C(/c1ccc(OCCNC/C=C/C(=O)N(C)C)cc1)c1ccc2[nH]nc(F)c2c1)c1ccccn1 [Compound 67, (E)-4-((2-(4-((E)-1-(3-fluoro-1H-indazol-5-yl)-2-(pyridin-2-yl)but-1-en-1-yl)phenoxy)ethyl)amino)-N,N-dimethylbut-2-enamide] | 193 | 10.5 |
| CC/C(=C(/c1ccc(OCCNC/C=C/C(=O)N(C)C)nc1)c1ccc2[nH]nc(F)c2c1)c1ccccc1 [Compound 68, (E)-4-((2-((5-((Z)-1-(3-fluoro-1H-indazol-5-yl)-2-phenylbut-1-en-1-yl)pyridin-2-yl)oxy)ethyl)amino)-N,N-dimethylbut-2-enamide] | 30.3 | 2.8 |
| CN(C)C(=O)/C=C/CNCCOc1ccc(/C(=C(\c2ccccc2)C2CCC2)c2ccc3[nH]nc(F)c3c2)cn1 [Compound 72, (E)-4-((2-((5-((Z)-2-cyclobutyl-1-(3-fluoro-1H-indazol-5-yl)-2-phenylvinyl)pyridin-2-yl)oxy)ethyl)amino)-N,N-dimethylbut-2-enamide] | 32.7 | 2 |
